{
  "source": "patent US8168236B2",
  "about": "“Extracts of Polygonum multiflorum thunb., and preparation process and uses of the same” (National Yang-Ming University, priority 2003, dated 2012)",
  "molecules": {"B1": {"name": "mGM-CSF: granulocyte-monocyte colony stimulating factor, 20 ng/ml positive control (protein, UniProt P01587 18-141, looked up)", "Granulocyte-macrophage …": "APTRSPITVTRPWKHVEAIKEALNLLDDMPVTLNEEVEVVSNEFSFKKLTCVQTRLKIFEQGLRGNFTKLKGALNMTASYYQTYCPPTPETDCETQVTTYADFIDSLKTFLTDIPFECKKPGQK"}},
  "key": {"[1]": {"test_system": "EGF-stimulated bone marrow cells", "test": "MTT assay, proliferation of EGF-stimulated bone marrow cells", "type": "cell-based, mouse", "settings": "positive control, 50 ng/ml EGF", "procedure": "Under sterile condition, C57BL/6j (male, 15-20 g, 4-6 weeks old) were sacrificed, and their femoral bones were injected with DMEM/F12 culture medium (Gibco, N.Y. USA) so as to flush out the bone marrow cells. The collected cells in DMEM/F12 culture medium were then filtered through a sterile No. 53 nylon mesh so as to obtain a single cell suspension, the cell concentration of which was subsequently adjusted to 6×10^5 cells/ml with DMEM/F12 culture medium containing N2 supplement (Sigma, Mo., USA).\nThe mouse bone marrow cells (1.5×10^5 nucleated cells/well) as prepared in the above Procedure (I) were placed into 96-well culture plates and incubated in 200 μl of a defined medium (DMEM/F12 plus N2 supplement) supplemented with EGF (at a final concentration of 10 ng/ml). After incubation at 37° C. for 24 hrs, different concentrations (0.01 μg/ml, […], 1 μg/ml, 10 μg/ml and 100 μg/ml) of the extracts of Polygonum multiflorum Thunb. root obtained in Example 1 were added into the wells of the culture plates, respectively. […]\nSubsequently, MTT assay was performed. […] The culture plates were allowed to stand for 14 hours and then subjected to absorbance detection using a microplate reader at O.D. 550 nm-O.D. 690 nm. […] The obtained experimental data were analyzed by Student's t-test."}, "[2]": {"test_system": "dexamethasone-stimulated mouse primary bone marrow cell cultures", "test": "Alkaline phosphatase colorimetry, dexamethasone-stimulated osteogenic cell maturation (test A)", "type": "cell-based", "settings": "positive control, 0.1 nM estrogen", "procedure": "Under sterile condition, C57BL/6j (male, 15-20 g, 4-6 weeks old) were sacrificed, and their femoral bones were injected with alpha-minimal essential medium (α-MEM) culture medium (Gibco, N.Y., USA) so as to flush out the bone marrow cells. The collected cells in α-MEM culture medium were then filtered through a sterile No. 53 nylon mesh so as to obtain a single cell suspension.\nThe mouse bone marrow cells (1.5×10^5 nucleated cells/well) as prepared in the above Procedure (I) were placed into 96-well culture plates and incubated in α-MEM supplemented with 15% FCS, 10 μM dexamethazone, 50 μg/ml ascorbic acid, and 10 mM sodium, β-glycerophosphate. After incubation at 37° C. for 48 hrs, extracts of Polygonum multiflorum Thunb. root with different concentrations (0.01 μg/ml, 0.1 μg/ml, 1 μg/ml, 10 μg/ml, 100 μg/ml and 1000 μg/ml) were added into the wells of the culture plates, respectively. […]\nThe alkaline phosphatase (AP) colorimetry (Aubin, J. E. et al. (1995), Bone, 17: 77S-83S; Sabokbar, A. et al. (1994), Bone & Mineral, 27: 57-67) was conducted as follows: The culture medium in each well of the culture plates was removed, and the remaining cells were added with 120 μl of 0.01% SDS and incubated in a 37° C. incubator for 10 minutes. […] After a reaction time of 10-15 minutes at 37° C., the culture plates were subjected to absorbance detection at O.D. 405 nm."}, "[3]": {"test_system": "mGM-CSF-stimulated mouse primary bone marrow cultures", "test": "MTT assay, mGM-CSF-stimulated proliferation of bone marrow cultures", "type": "cell-based", "settings": "positive control, mGM-CSF 20 ng/ml", "procedure": "Subsequently, MTT assay was performed. Each well of the culture plates was added with a MTT solution (5 mg/ml dissolved in 1×PBS) to a final concentration of 1 mg/ml. Four hours later, each well of the culture plates was added with a MTT lysis buffer (20% sodium dodecyl sulfate (SDS) in 50% dimethylformamide (DMF)/50% H2O) in an amount of 150 μl/well. The culture plates were allowed to stand for 14 hours and then subjected to absorbance detection using a microplate reader at O.D. 550 nm-O.D. 690 nm. Each experiment was conducted in duplicate, and n=6 wells for each group. The obtained experimental data were analyzed by Student's t-test.\nThe mouse bone marrow cells (1.5×10^5 nucleated cells/well) prepared according to the procedures set forth in Procedure (I) of Example 5 were placed into 96-well culture plates and incubated in RPMI supplemented with 5% FCS and mGM-CSF (at a final concentration of 2 ng/ml). After incubation at 37° C. for 24 hrs, extracts of the Polygonum multiflorum Thunb. root with different concentrations (0.1 μg/ml, 1 μg/ml, 10 μg/ml and 100 μg/ml) were added into the wells of the culture plates, respectively. The positive control group was treated with 20 ng/ml mGM-CSF, and the negative control group was treated with 2 ng/ml mGM-CSF. […]"}},
  "data": [
    {"molecule": "EGF: epidermal growth factor, 50 ng/ml positive control", "values": [
      {"measurement": "Proliferation index", "setting": "[1]", "value": "1.26 (±0.13)"}
    ]},
    {"molecule": "estrogen", "values": [
      {"measurement": "AP activity index", "setting": "[2]", "value": 1.28}
    ]},
    {"molecule": "B1", "values": [
      {"measurement": "Proliferation index", "setting": "[3]", "value": 2.05}
    ]}
  ]
}
